In publication PMC7508628, “Targeting the Respiratory Syncytial Virus N^0-P Complex with Constrained α-Helical Peptides in Cells and Mice” (Antimicrobial Agents and Chemotherapy, 2020):
Where a SMILES comes first, the peptide text is derived from it. Bridges are numbered along the chain shown (N, C = ends). [ ]: non-standard residue; d: D form. R8 = C=CCCCCCC[C@@](C)(N)C(=O)O; R5 = C=CCCC[C@@](C)(N)C(=O)O; S5 = C=CCCC[C@](C)(N)C(=O)O

Experiment: Circular dichroism spectroscopy, α-helical content
Format: physicochemical
Details: CD, 10 mM phosphate buffer pH 7.5, 50 μM peptide, 25°C, calculated from ellipticity at 222 nm; average of three measurements
Procedure: The α-helical stabilization appeared to be higher for the i, i + 7 staples overall.
The circular dichroism spectra were acquired on a Chirascan spectropolarimeter. The samples were prepared in 10 mM phosphate buffer, pH 7.5, at a peptide concentration of 50 μM. Data were recorded at 25°C by step scan from 180 nm to 260 nm in a 0.5-mm-pathlength quartz cell using 0.2-nm-wavelength increments, a 1-nm bandwidth, and a response time of 1 s. Each spectrum was an average of three measurements and was subtracted from the buffer baseline. The data were converted to per residue molar ellipticity units (θ; in degrees · square centimeters · decimoles^−1 · number of residues^−1) and smoothed using Igor Pro software. Percent helicity was calculated as follows: (100 × CD222)/(C × N × {40,000 × [1 − (2.5/N)]}), where CD222 is the molar ellipticity (θ) at 222 nm (in millidegrees), N is the number of amino acids in the peptide, and C is the peptide molar concentration (in moles per liter).

Compound | % helicity [%]
CC[C@H](C)[C@H](NC(=O)[C@H](CO)NC(=O)[C@H](CCC(=O)O)NC(=O)[C@H](CC(C)C)NC(=O)[C@H](Cc1ccccc1)NC(=O)[C@]1(C)CCCC=CCCC[C@@](C)(NC(=O)[C@H](CC(N)=O)NC(=O)[C@H](CC(N)=O)NC(=O)[C@H](C)NC(=O)[C@H](CC(=O)O)NC(=O)[C@H](CCC(=O)O)NC(C)=O)C(=O)N[C@@H](C)C(=O)N[C@@H]([C@@H](C)O)C(=O)N1)C(=O)N[C@@H](CCCCN)C(=O)NCC(=O)N[C@@H](CCCCN)C(=O)N[C@@H](Cc1ccccc1)C(=O)N[C@@H](C)C(=O)N[C@@H](CO)C(N)=O [1b] (Ac-EDANN[R5]AT[S5]FLESIKGKFAS-NH2; staple 6-9) | 11.5
CC[C@H](C)[C@@H]1NC(=O)[C@H](CO)NC(=O)[C@@](C)(NC(=O)[C@H](CC(C)C)NC(=O)[C@H](Cc2ccccc2)NC(=O)[C@H](CCCCN)NC(=O)[C@@H](NC(=O)[C@H](C)NC(=O)[C@H](CCCCN)NC(=O)[C@H](CC(N)=O)NC(=O)[C@H](CC(N)=O)NC(=O)[C@H](C)NC(=O)[C@H](CC(=O)O)NC(=O)[C@H](CCC(=O)O)NC(=O)CNC(=O)[C@H](Cc2c[nH]cn2)NC(=O)[C@H](Cc2ccccc2)NC(=O)[C@H](CCC(=O)O)NC(C)=O)[C@@H](C)O)CCCC=CCCCC2(CCCC=CCCC[C@@](C)(C(=O)N[C@@H](CO)C(N)=O)NC(=O)[C@H](Cc3ccccc3)NC(=O)[C@H](CCCCN)NC2=O)NC(=O)[C@H](CCCCN)NC1=O (stereo partly shown) [2e1f] | 27.0
CC[C@H](C)[C@H](NC(=O)[C@H](CO)NC(=O)[C@H](CCC(=O)O)NC(=O)[C@H](CC(C)C)NC(=O)[C@H](Cc1ccccc1)NC(=O)[C@H](CCCCN)NC(=O)[C@@H](NC(=O)[C@H](C)NC(=O)[C@H](CCCCN)NC(=O)[C@]1(C)CCCC=CCCC[C@@](C)(NC(=O)[C@H](CCC(=O)O)NC(=O)CNC(=O)[C@H](Cc2c[nH]cn2)NC(=O)[C@H](Cc2ccccc2)NC(=O)[C@H](CCC(=O)O)NC(C)=O)C(=O)N[C@@H](C)C(=O)N[C@@H](CC(N)=O)C(=O)N1)[C@@H](C)O)C(=O)N[C@@H](CCCCN)C(=O)NCC(=O)N[C@@H](CCCCN)C(=O)N[C@@H](Cc1ccccc1)C(=O)N[C@@H](C)C(=O)N[C@@H](CO)C(N)=O [4b] (Ac-EFHGE[R5]AN[S5]KATKFLESIKGKFAS-NH2; staple 6-9) | 21.7
CC[C@H](C)[C@H](NC(=O)[C@H](CO)NC(=O)[C@H](CCC(=O)O)NC(=O)[C@H](CC(C)C)NC(=O)[C@H](Cc1ccccc1)NC(=O)[C@H](CCCCN)NC(=O)[C@@H](NC(=O)[C@H](C)NC(=O)[C@]1(C)CCCC=CCCC[C@](C)(NC(=O)[C@H](CCC(=O)O)NC(=O)CNC(=O)[C@H](Cc2c[nH]cn2)NC(=O)[C@H](Cc2ccccc2)NC(=O)[C@H](CCC(=O)O)NC(C)=O)C(=O)N[C@@H](C)C(=O)N[C@@H](CC(N)=O)C(=O)N[C@@H](CC(N)=O)C(=O)N1)[C@@H](C)O)C(=O)N[C@@H](CCCCN)C(=O)NCC(=O)N[C@@H](CCCCN)C(=O)N[C@@H](Cc1ccccc1)C(=O)N[C@@H](C)C(=O)N[C@@H](CO)C(N)=O [4d] (Ac-EFHGE[S5]ANN[S5]ATKFLESIKGKFAS-NH2; staple 6-10) | 28.0
CC[C@H](C)[C@H](NC(=O)[C@]1(C)CCCCCCC=CCCCC2(CCCC=CCCCCCC[C@@](C)(NC(=O)[C@H](Cc3ccccc3)NC(=O)[C@H](CCC(=O)O)NC(C)=O)C(=O)NCC(=O)N[C@@H](CCC(=O)O)C(=O)N[C@@H](CC(=O)O)C(=O)N[C@@H](C)C(=O)N[C@@H](CC(N)=O)C(=O)N[C@@H](CC(N)=O)C(=O)N2)C(=O)N[C@@H](C)C(=O)N[C@@H]([C@@H](C)O)C(=O)N[C@@H](CCCCN)C(=O)N[C@@H](Cc2ccccc2)C(=O)N[C@@H](CC(C)C)C(=O)N[C@@H](CCC(=O)O)C(=O)N1)C(=O)N[C@@H](CCCCN)C(=O)NCC(=O)N[C@@H](CCCCN)C(=O)N[C@@H](Cc1ccccc1)C(=O)N[C@@H](C)C(=O)N[C@@H](CO)C(N)=O (stereo partly shown) [4e3b] | 51.1
CC[C@H](C)[C@H](NC(=O)[C@H](CO)NC(=O)[C@H](CCC(=O)O)NC(=O)[C@H](CC(C)C)NC(=O)[C@H](Cc1ccccc1)NC(=O)[C@H](CCCCN)NC(=O)[C@@H](NC(=O)[C@H](C)NC(=O)[C@]1(C)CCCC=CCCCCCC[C@@](C)(NC(=O)[C@H](Cc2ccccc2)NC(=O)[C@H](CCC(=O)O)NC(C)=O)C(=O)NCC(=O)N[C@@H](CCC(=O)O)C(=O)N[C@@H](CC(=O)O)C(=O)N[C@@H](C)C(=O)N[C@@H](CC(N)=O)C(=O)N[C@@H](CC(N)=O)C(=O)N1)[C@@H](C)O)C(=O)N[C@@H](CCCCN)C(=O)NCC(=O)N[C@@H](CCCCN)C(=O)N[C@@H](Cc1ccccc1)C(=O)N[C@@H](C)C(=O)N[C@@H](CO)C(N)=O [4e] (Ac-EF[R8]GEDANN[S5]ATKFLESIKGKFAS-NH2; staple 3-10) | 28.8
CC[C@H](C)[C@H](NC(=O)[C@H](CO)NC(=O)[C@H](CCC(=O)O)NC(=O)[C@H](CC(C)C)NC(=O)[C@H](Cc1ccccc1)NC(=O)[C@]1(C)CCCC=CCCCCCC[C@@](C)(NC(=O)[C@H](CCC(=O)O)NC(=O)CNC(=O)[C@H](Cc2c[nH]cn2)NC(=O)[C@H](Cc2ccccc2)NC(=O)[C@H](CCC(=O)O)NC(C)=O)C(=O)N[C@@H](C)C(=O)N[C@@H](CC(N)=O)C(=O)N[C@@H](CC(N)=O)C(=O)N[C@@H](CCCCN)C(=O)N[C@@H](C)C(=O)N[C@@H]([C@@H](C)O)C(=O)N1)C(=O)N[C@@H](CCCCN)C(=O)NCC(=O)N[C@@H](CCCCN)C(=O)N[C@@H](Cc1ccccc1)C(=O)N[C@@H](C)C(=O)N[C@@H](CO)C(N)=O [4f] (Ac-EFHGE[R8]ANNKAT[S5]FLESIKGKFAS-NH2; staple 6-13) | 17.2
CC[C@H](C)[C@H](NC(=O)[C@]1(C)CCCC=CCCCCCC[C@@](C)(NC(=O)[C@H](CC(N)=O)NC(=O)[C@H](CC(N)=O)NC(=O)[C@H](C)NC(=O)[C@H](CC(=O)O)NC(=O)[C@H](CCC(=O)O)NC(=O)CNC(=O)[C@H](Cc2c[nH]cn2)NC(=O)[C@H](Cc2ccccc2)NC(=O)[C@H](CCC(=O)O)NC(C)=O)C(=O)N[C@@H](C)C(=O)N[C@@H]([C@@H](C)O)C(=O)N[C@@H](CCCCN)C(=O)N[C@@H](Cc2ccccc2)C(=O)N[C@@H](CC(C)C)C(=O)N[C@@H](CCC(=O)O)C(=O)N1)C(=O)N[C@@H](CCCCN)C(=O)NCC(=O)N[C@@H](CCCCN)C(=O)N[C@@H](Cc1ccccc1)C(=O)N[C@@H](C)C(=O)N[C@@H](CO)C(N)=O [4g] | 47.6

Experiment: circular dichroism
Details: 10 mM phosphate; pH 7.5; 25 °C; 50 uM

Compound | helicity [%]
CC[C@H](C)[C@H](NC(=O)[C@H](CO)NC(=O)[C@H](CCC(=O)O)NC(=O)[C@H](CC(C)C)NC(=O)[C@H](Cc1ccccc1)NC(=O)[C@H](CCCCN)NC(=O)[C@@H](NC(=O)[C@H](C)NC(=O)[C@H](CCCCN)NC(=O)[C@H](CC(N)=O)NC(=O)[C@H](CC(N)=O)NC(=O)[C@H](C)NC(=O)[C@H](CC(=O)O)NC(=O)[C@H](CCC(=O)O)NC(C)=O)[C@@H](C)O)C(=O)N[C@@H](CCCCN)C(=O)N[C@@]1(C)CCCC=CCCC[C@@](C)(C(N)=O)NC(=O)[C@H](C)NC(=O)[C@H](Cc2ccccc2)NC(=O)[C@H](CCCCN)NC1=O (Ac-EDANNKATKFLESIK[S5]KFA[S5]-NH2; staple 16-20) | 24.1
CC[C@H](C)[C@@H]1NC(=O)[C@](C)(NC(=O)[C@H](CCC(=O)O)NC(=O)[C@H](CC(C)C)NC(=O)[C@H](Cc2ccccc2)NC(=O)[C@H](CCCCN)NC(=O)[C@@H](NC(=O)[C@H](C)NC(=O)[C@H](CCCCN)NC(=O)[C@H](CC(N)=O)NC(=O)[C@H](CC(N)=O)NC(=O)[C@H](C)NC(=O)[C@H](CC(=O)O)NC(=O)[C@H](CCC(=O)O)NC(C)=O)[C@@H](C)O)CCCC=CCCC[C@@](C)(C(=O)N[C@@H](CCCCN)C(=O)N[C@@H](Cc2ccccc2)C(=O)N[C@@H](C)C(=O)N[C@@H](CO)C(N)=O)NC(=O)[C@H](CCCCN)NC1=O (Ac-EDANNKATKFLE[R5]IK[S5]KFAS-NH2; staple 13-16) | 30.7
CC[C@H](C)[C@@H]1NC(=O)[C@@](C)(NC(=O)[C@H](CCC(=O)O)NC(=O)[C@H](CC(C)C)NC(=O)[C@H](Cc2ccccc2)NC(=O)[C@H](CCCCN)NC(=O)[C@@H](NC(=O)[C@H](C)NC(=O)[C@H](CCCCN)NC(=O)[C@H](CC(N)=O)NC(=O)[C@H](CC(N)=O)NC(=O)[C@H](C)NC(=O)[C@H](CC(=O)O)NC(=O)[C@H](CCC(=O)O)NC(C)=O)[C@@H](C)O)CCCC=CCCC[C@@](C)(C(=O)N[C@@H](Cc2ccccc2)C(=O)N[C@@H](C)C(=O)N[C@@H](CO)C(N)=O)NC(=O)CNC(=O)[C@H](CCCCN)NC1=O (Ac-EDANNKATKFLE[S5]IKG[S5]FAS-NH2; staple 13-17) | 46.5
CC[C@H](C)[C@@H]1NC(=O)[C@H](CO)NC(=O)[C@](C)(NC(=O)[C@H](CC(C)C)NC(=O)[C@H](Cc2ccccc2)NC(=O)[C@H](CCCCN)NC(=O)[C@@H](NC(=O)[C@H](C)NC(=O)[C@H](CCCCN)NC(=O)[C@H](CC(N)=O)NC(=O)[C@H](CC(N)=O)NC(=O)[C@H](C)NC(=O)[C@H](CC(=O)O)NC(=O)[C@H](CCC(=O)O)NC(C)=O)[C@@H](C)O)CCCCCCC=CCCC[C@@](C)(C(=O)N[C@@H](CO)C(N)=O)NC(=O)[C@H](Cc2ccccc2)NC(=O)[C@H](CCCCN)NC(=O)CNC(=O)[C@H](CCCCN)NC1=O (Ac-EDANNKATKFL[R8]SIKGKF[S5]S-NH2; staple 12-19) | 35.3
CC[C@H](C)[C@H](NC(=O)[C@H](CO)NC(=O)[C@]1(C)CCCC=CCCC[C@@](C)(NC(=O)[C@@H](NC(=O)[C@H](C)NC(=O)[C@H](CCCCN)NC(=O)[C@H](CC(N)=O)NC(=O)[C@H](CC(N)=O)NC(=O)[C@H](C)NC(=O)[C@H](CC(=O)O)NC(=O)[C@H](CCC(=O)O)NC(C)=O)[C@@H](C)O)C(=O)N[C@@H](Cc2ccccc2)C(=O)N[C@@H](CC(C)C)C(=O)N1)C(=O)N[C@@H](CCCCN)C(=O)NCC(=O)N[C@@H](CCCCN)C(=O)N[C@@H](Cc1ccccc1)C(=O)N[C@@H](C)C(=O)N[C@@H](CO)C(N)=O (Ac-EDANNKAT[R5]FL[S5]SIKGKFAS-NH2; staple 9-12) | 58.9
